Experimental data taken from patent US20130245081A1, “Compositions and Methods for Treating Amyotrophic Lateral Sclerosis” (priority 2009, published 2013).
Like-named read-outs stand apart in the source and are kept apart here.

Tests used:
clinical = settings: for CL/F / Fe / Ue / λz: Day 7, fasted; for CL renal: urine and plasma
Source text: A total of 54 subjects (30 subjects in Study CL001 and 24 subjects in Study CL002) were enrolled. Healthy, non-smoking, male and female subjects 30 to 60 years of age, inclusive, with normal or clinically acceptable physical examination and electrocardiogram (ECG) findings, systolic (90 to 140 mmHg) and diastolic (50 to 90 mmHg) blood pressure, and resting heart rate (50 to 100 bpm) who were willing to provide signed, written informed consent were eligible for enrollment. Female volunteers had to be of non-childbearing potential with negative pregnancy test results at screening and clinic check-in. Subjects with any history of neurodegenerative illnesses were excluded. The use of over-the-counter medications within 7 days prior to enrollment or prescription medications within 12 weeks prior to enrollment was prohibited.
In the second study, subjects were enrolled in 3 successive double-blind, placebo-controlled, panels of 8 subjects (n=6 active, n=2 placebo per panel).
Matching placebo capsules contained equivalent weights of microcrystalline cellulose. Capsules were administered orally with water. […] Subjects in the fasted cohorts were required to fast overnight for a minimum of 10 hours before dose administration. Subjects in the food cohort were required to fast overnight for a minimum of 10 hours before dose administration, with exception of the high fat/high calorie meal that was administered 30 minutes prior to drug administration. […] All available safety data were reviewed under blinded conditions to monitor for serious safety or tolerability events prior to proceeding with dose escalations.
In both studies, a complete collection was attempted for each urine sample interval.
Blood samples were collected into a 10 mL dipotassium ethylenediaminetetraacetic acid (K2-EDTA) Vacutainer® via an indwelling peripheral intravenous cannula or by direct venipuncture. Within 15 minutes of collection, the samples were centrifuged at 3000 rpm for 10 minutes at 4° C. After centrifugation, the plasma was divided into 2 aliquots of at least 1.5 mL each, placed into polypropylene containers, frozen, and stored at −20° C. until they were shipped for analysis.
Urine collected in each interval was well mixed, the pH was recorded, the total volume (or the weight and specific gravity) was recorded, and 2 aliquots of 20 mL each were collected into polypropylene containers and stored at −20° C. until they were shipped for analysis. All plasma and urine sample were shipped frozen on dry ice in 2 separate shipments per group (1 set of aliquots per shipment) to Eurofins AvTech Laboratories Inc. (Kalamazoo, Mich.) for bioanalytical analysis.
Plasma and urine concentrations were measured using validated liquid chromatography/mass spectrometry/mass spectrometry (LC/MS/MS) methods. […] The analytical procedure for analysis of plasma samples used a 100 μL aliquot of K2EDTA human plasma. The plasma sample was spiked with 20 μL of working internal standard solution and 20 μL of type 1 water for subject samples and QCs and 20 μL of the appropriate intermediate standard solution for standards. One hundred microliters ([…]) of 50% ammonium hydroxide solution was added to the sample followed by vortex mixing. One milliliter (1 mL) of tertbutyl methyl ether was then added and the sample was vortexed to extract the analyte and internal standard into the organic layer, followed by separation using flash freezing. The organic layer was decanted, evaporated to dryness, and the sample was reconstituted with 0.5 mL of reconstitution solution (0.1% ammonium hydroxide in 50:50 methanol; type 1 water (v/v/v)). A 10 μL aliquot of this reconstituted sample was injected into an LC/MS/MS system for analysis.

patients with ALS = settings: for treatment failures (6-point or greater drop in ALSFRS-R total score): baseline to 12 weeks; for treatment failures (reduction in VC of 20% or greater): baseline to Week 12
[1] = both, human, plasma, oral, 50 mg
[2] = both, human, plasma, oral, 100 mg
[3] = both, human, plasma, oral, 150 mg

CCCN[C@@H]1CCc2nc(N)sc2C1 [dexpramipexole, (6R)-2-amino-4,5,6,7-tetrahydro-6-(propylamino)benzothiazole]
CL/F (clinical; 50 mg Twice Daily): 437 ± 60.8 mL/min | Fe (clinical; 50 mg Twice Daily): 87.2 ± 10.26 % dose | Ue (clinical; 50 mg Twice Daily): 32.5 ± 3.82 mg | λz (clinical; 50 mg Twice Daily): 0.1039 ± 0.0193 h⁻¹ | CL/F (clinical; 100 mg Twice Daily): 510 ± 57.4 mL/min | Fe (clinical; 100 mg Twice Daily): 75.5 ± 3.51 % dose | Ue (clinical; 100 mg Twice Daily): 56.3 ± 2.62 mg | λz (clinical; 100 mg Twice Daily): 0.0893 ± 0.0117 h⁻¹ | CL/F (clinical; 150 mg Twice Daily): 507 ± 74.1 mL/min | Fe (clinical; 150 mg Twice Daily): 89.6 ± 7.83 % dose | Ue (clinical; 150 mg Twice Daily): 100.3 ± 8.76 mg | λz (clinical; 150 mg Twice Daily): 0.0895 ± 0.0184 h⁻¹ | dose recovered in the urine as unchanged parent drug (clinical; 12-hour steady-state dosing period): approximately 84% | AUC(0-t) (clinical; [1]): 1450 ± 221 ng·h/mL | Cmax at 7 day (clinical; [1]): 191 ± 20.9 ng/mL | Tmax (clinical; [1]): 1.75 h | Vd/F (clinical; [1]): 255 ± 24 L | half-life (clinical; [1]): 6.87 ± 1.29 h | AUC(0-t) (clinical; [2]): 2470 ± 304 ng·h/mL | Cmax at 7 day (clinical; [2]): 306 ± 54.8 ng/mL | Tmax (clinical; [2]): 2.02 h | Vd/F (clinical; [2]): 348 ± 61.7 L | half-life (clinical; [2]): 7.89 ± 1.19 h | AUC(0-t) (clinical; [3]): 3750 ± 575 ng·h/mL | Cmax (clinical; [3]): 479 ± 74.6 ng/mL | Tmax (clinical; [3]): 2.18 h | Vd/F (clinical; [3]): 349 ± 75.8 L | half-life (clinical; [3]): 8.05 ± 1.8 h | CL renal (clinical; both, human, oral, 50 mg): 385 ± 90.3 mL/min | CL renal (clinical; both, human, oral, 100 mg): 382 ± 62.7 mL/min | CL renal (clinical; both, human, oral, 150 mg): 451 mL/min | treatment failures (6-point or greater drop in ALSFRS-R total score) (patients with ALS; 50 mg/day): 35% | mean change from baseline to endpoint in ALSFRS-R total score (patients with ALS; 50 mg, 12 weeks): −5.0 | median change from baseline to endpoint in ALSFRS-R score (patients with ALS; 50 mg, 12 weeks): −3.0 | mean ALSFRS-R total score (patients with ALS; 50 mg, Week 12 of Part 1): 32.4 | mean McGill SIS score (patients with ALS; 50 mg, Week 12 of Part 1): 6.3 | mean upright VC (patients with ALS; 50 mg, Week 12 of Part 1): 82.5% | treatment failures (reduction in VC of 20% or greater) (patients with ALS; 50 mg): 13% | treatment failures (6-point or greater drop in ALSFRS-R total score) (patients with ALS; 150 mg/day): 15% | mean change from baseline to endpoint in ALSFRS-R total score (patients with ALS; 150 mg, 12 weeks): −3.3 | median change from baseline to endpoint in ALSFRS-R score (patients with ALS; 150 mg, 12 weeks): −2.5 | mean ALSFRS-R total score (patients with ALS; 150 mg, Week 12 of Part 1): 35.8 | mean upright VC (patients with ALS; 150 mg, Week 12 of Part 1): 82.3% | treatment failures (reduction in VC of 20% or greater) (patients with ALS; 150 mg): 12% | treatment failures (6-point or greater drop in ALSFRS-R total score) (patients with ALS; 300 mg/day): 8% | mean fine motor domain change of ALSFRS-R (mean±SEM) (patients with ALS; 300 mg/day, study endpoint): −0.6±0.24 | mean change from baseline to endpoint in ALSFRS-R total score (patients with ALS; 300 mg, 12 weeks): −2.2 | median change from baseline to endpoint in ALSFRS-R score (patients with ALS; 300 mg, 12 weeks): −2.0 | reduction of mean ALSFRS-R decline compared with placebo (patients with ALS; 300 mg, 12 weeks): 39% | reduction of median ALSFRS-R decline compared with placebo (patients with ALS; 300 mg, 12 weeks): 50% | slope of ALSFRS-R scores (linear mixed-effects) (patients with ALS; 300 mg, Part 1): −0.878 | mean ALSFRS-R total score (patients with ALS; 300 mg, Week 12 of Part 1): 36.2 | mean McGill SIS score (patients with ALS; 300 mg, Week 12 of Part 1): 7.3 | mean upright VC (patients with ALS; 300 mg, Week 12 of Part 1): 82.1% | median upright VC (patients with ALS; 300 mg, Week 12 of Part 1): 91.2% | treatment failures (reduction in VC of 20% or greater) (patients with ALS; 300 mg): 4% | reduction in handwriting score (FIG. 4A) (patients with ALS; daily doses of 30 mg (so in the source)): almost no reduction
